The values below come from patent US6638973B2, “Taxane formulations” (FSU Research Foundation, Inc., priority 2000, dated 2003).

The test system of one experiment is HCT116 cells. In words: In vitro cytotoxicity measured by the cell colony formation assay. In kind it is cell-based. The conditions noted are these: HCT116 cells, 72 h drug incubation, colonies counted after 7 days; ID50 = drug concentration producing 50% inhibition of colony formation; read-out: IN VITRO ID 50 (nm) HCT116. Summed up: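 Colony-forming survival was scored 7 days after a 72 h, 37 °C compound exposure followed by washout into fresh medium.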
Take `CCNC(=O)O[C@H]1C[C@H]2OC[C@@]2(OC(C)=O)C2[C@H](OC(=O)c3ccccc3)[C@]3(O)C[C@H](OC(=O)[C@H](O)[C@@H](NC(=O)C=C(C)C)c4ccco4)C(C)=C([C@@H](O)C(=O)[C@@]21C)C3(C)C` (stereo partly drawn) [Compound 5588]: the IC50 was under 1 nM.

For the compound `CCCNC(=O)O[C@H]1C[C@H]2OC[C@@]2(OC(C)=O)C2[C@H](OC(=O)c3ccccc3)[C@]3(O)C[C@H](OC(=O)[C@H](O)[C@@H](NC(=O)OC(C)(C)C)c4ccco4)C(C)=C([C@@H](O)C(=O)[C@@]21C)C3(C)C` (stereo partly drawn) [Compound 5665], the IC50 was over 50 nM.

With `C/C=C/C(=O)N[C@@H](c1ccco1)[C@@H](O)C(=O)O[C@H]1C[C@@]2(O)[C@@H](OC(=O)c3ccccc3)C3[C@](C)(C(=O)[C@H](O)C(=C1C)C2(C)C)[C@@H](OC(=O)Nc1ccccc1)C[C@H]1OC[C@@]31OC(C)=O` (stereo partly drawn) [Compound 5757], the IC50 was under 10 nM.

For the compound `CC=CC(=O)NC(c1ccco1)C(O)C(=O)OC1CC2(O)C(OC(=O)c3ccccc3)C3C4(OC(C)=O)COC4CC(OC(=O)Nc4ccc(F)c(F)c4)C3(C)C(=O)C(O)C(=C1C)C2(C)C` (stereo not drawn) [Compound 5800], the IC50 was under 10 nM.

For `C/C=C/C(=O)N[C@@H](c1ccco1)[C@@H](O)C(=O)O[C@H]1C[C@@]2(O)[C@@H](OC(=O)c3ccccc3)C3[C@](C)(C(=O)[C@H](O)C(=C1C)C2(C)C)[C@@H](OC(=O)NCC)C[C@H]1OC[C@@]31OC(C)=O` (stereo partly drawn) [Compound 5822], the IC50 is under 10 nM.

`C/C=C/C(=O)N[C@@H](c1ccco1)[C@@H](O)C(=O)O[C@H]1C[C@@]2(O)[C@@H](OC(=O)c3ccccc3)C3[C@](C)(C(=O)[C@H](O)C(=C1C)C2(C)C)[C@@H](OC(=O)NC1CCCCC1)C[C@H]1OC[C@@]31OC(C)=O` (stereo partly drawn) [Compound 5895]: the IC50 is under 1 nM.

The experiment is the same for the next values; noted with them: HCT116 cells, 72 h incubation with drug, colonies counted after 7 days; ID50 = drug concentration producing 50% inhibition of colony formation; read-out: IN VITRO ID 50 (nm) HCT116.
Turning to `CCOC(=O)O[C@H]1C[C@H]2OC[C@@]2(OC(C)=O)C2[C@H](OC(=O)c3ccccc3)[C@]3(O)C[C@H](OC(=O)[C@H](O)[C@@H](NC(=O)C=C(C)C)c4ccco4)C(C)=C([C@@H](O)C(=O)[C@@]21C)C3(C)C` (stereo partly drawn) [Compound 6151], the IC50 is under 1 nM.

In the case of `CCC(C)(C)OC(=O)N[C@@H](c1ccco1)[C@@H](O)C(=O)O[C@H]1C[C@@]2(O)[C@@H](OC(=O)c3ccccc3)C3[C@](C)(C(=O)[C@H](O)C(=C1C)C2(C)C)[C@@H](OC(=O)OCc1ccccc1)C[C@H]1OC[C@@]31OC(C)=O` (stereo partly drawn) [Compound 6246], the IC50 was under 1 nM.

Staying with this experiment, now noted: HCT116 cells, colony formation, 72 h incubation with drug, colonies counted after 7 days; ID50 = drug concentration producing 50% inhibition of colony formation; read-out: IN VITRO ID 50 (nm) HCT116.
Consider `C/C=C/C(=O)N[C@@H](c1ccco1)[C@@H](O)C(=O)O[C@H]1C[C@@]2(O)[C@@H](OC(=O)c3ccccc3)C3[C@](C)(C(=O)[C@H](OC(=O)Nc4ccc(F)c(F)c4)C(=C1C)C2(C)C)[C@@H](O)C[C@H]1OC[C@@]31OC(C)=O` (stereo partly drawn) [Compound 6015], for which the IC50 is under 10 nM.

Turning to `C/C=C/C(=O)N[C@@H](c1ccco1)[C@@H](O)C(=O)O[C@H]1C[C@@]2(O)[C@@H](OC(=O)c3ccccc3)C3[C@](C)(C(=O)[C@H](OC(=O)Nc4ccccc4)C(=C1C)C2(C)C)[C@@H](O)C[C@H]1OC[C@@]31OC(C)=O` (stereo partly drawn) [Compound 6024], the IC50 is under 1 nM.

Take `C/C=C/C(=O)N[C@@H](c1ccco1)[C@@H](O)C(=O)O[C@H]1C[C@@]2(O)[C@@H](OC(=O)c3ccccc3)C3[C@](C)(C(=O)[C@H](OC(=O)NCC)C(=C1C)C2(C)C)[C@@H](O)C[C@H]1OC[C@@]31OC(C)=O` (stereo partly drawn) [Compound 6072]: the IC50 was under 1 nM.

The experiment is the same for the next values; noted with them: HCT116 colony formation; 72 h drug incubation, colonies counted after 7 days; Example 5, C-7 ester/C-10 hydroxy taxanes; read-out: IN VITRO ID 50 (nm) HCT116.
On to `CC(=O)O[C@@]12CO[C@@H]1C[C@H](OC(=O)C(C)C)[C@@]1(C)C(=O)[C@H](O)C3=C(C)[C@@H](OC(=O)[C@H](O)[C@@H](NC(=O)OC=C(C)C)c4ccco4)C[C@@](O)([C@@H](OC(=O)c4ccccc4)C12)C3(C)C` (stereo partly drawn) [Compound 5989], for which the IC50 was under 10 nM.

Turning to `CC(=O)O[C@@]12CO[C@@H]1C[C@H](OC(=O)C=C(C)C)[C@@]1(C)C(=O)[C@H](O)C3=C(C)[C@@H](OC(=O)[C@H](O)[C@@H](NC(=O)OCC(C)C)c4ccco4)C[C@@](O)([C@@H](OC(=O)c4ccccc4)C12)C3(C)C` (stereo partly drawn) [Compound 6040], the IC50 is under 10 nM.

As to `CC(=O)O[C@@]12CO[C@@H]1C[C@H](OC(=O)C(C)C)[C@@]1(C)C(=O)[C@H](O)C3=C(C)[C@@H](OC(=O)[C@H](O)[C@@H](NC(=O)C(C)C)c4ccco4)C[C@@](O)([C@@H](OC(=O)c4ccccc4)C12)C3(C)C` (stereo partly drawn) [Compound 6121], the IC50 is under 10 nM.

Take `CC(=O)O[C@@]12CO[C@@H]1C[C@H](OC(=O)CC(C)C)[C@@]1(C)C(=O)[C@H](O)C3=C(C)[C@@H](OC(=O)[C@H](O)[C@@H](NC(=O)OC=C(C)C)c4ccco4)C[C@@](O)([C@@H](OC(=O)c4ccccc4)C12)C3(C)C` (stereo partly drawn) [Compound 6131]: the IC50 is under 1 nM.

`CCCCC(=O)O[C@H]1C[C@H]2OC[C@@]2(OC(C)=O)C2[C@H](OC(=O)c3ccccc3)[C@]3(O)C[C@H](OC(=O)[C@H](O)[C@@H](NC(=O)OC=C(C)C)c4ccco4)C(C)=C([C@@H](O)C(=O)[C@@]21C)C3(C)C` (stereo partly drawn) [Compound 6141]: the IC50 is under 1 nM.

In the case of `CCC(=O)O[C@H]1C[C@H]2OC[C@@]2(OC(C)=O)C2[C@H](OC(=O)c3ccccc3)[C@]3(O)C[C@H](OC(=O)[C@H](O)[C@@H](NC(=O)OC=C(C)C)c4ccco4)C(C)=C([C@@H](O)C(=O)[C@@]21C)C3(C)C` (stereo partly drawn) [Compound 6171], the IC50 is under 10 nM.

As to `CCCC(=O)O[C@H]1C[C@H]2OC[C@@]2(OC(C)=O)C2[C@H](OC(=O)c3ccccc3)[C@]3(O)C[C@H](OC(=O)[C@H](O)[C@@H](NC(=O)OC=C(C)C)c4ccco4)C(C)=C([C@@H](O)C(=O)[C@@]21C)C3(C)C` (stereo partly drawn) [Compound 6181], the IC50 is under 1 nM.

As for `C/C=C/C(=O)N[C@@H](c1ccco1)[C@@H](O)C(=O)O[C@H]1C[C@@]2(O)[C@@H](OC(=O)c3ccccc3)C3[C@](C)(C(=O)[C@H](O)C(=C1C)C2(C)C)[C@@H](OC(=O)C(C)C)C[C@H]1OC[C@@]31OC(C)=O` (stereo partly drawn) [Compound 6202], the IC50 was under 1 nM.

Regarding `CCC(=O)O[C@H]1C[C@H]2OC[C@@]2(OC(C)=O)C2[C@H](OC(=O)c3ccccc3)[C@]3(O)C[C@H](OC(=O)[C@H](O)[C@@H](NC(=O)OC(C)(C)CC)c4ccco4)C(C)=C([C@@H](O)C(=O)[C@@]21C)C3(C)C` (stereo partly drawn) [Compound 6212], the IC50 was under 1 nM.

Regarding `CCC(C)(C)OC(=O)N[C@@H](c1ccco1)[C@@H](O)C(=O)O[C@H]1C[C@@]2(O)[C@@H](OC(=O)c3ccccc3)C3[C@](C)(C(=O)[C@H](O)C(=C1C)C2(C)C)[C@@H](OC(=O)C(C)C)C[C@H]1OC[C@@]31OC(C)=O` (stereo partly drawn) [Compound 6252], the IC50 is under 1 nM.

The same experiment, now with this note: HCT116 colony formation; 72 h drug incubation, colonies counted after 7 days; Example 15, C-7 substituted acetate/C-10 hydroxy taxanes; read-out: IN VITRO ID 50 (nm) HCT116.
For the compound `CC(=O)O[C@@]12CO[C@@H]1C[C@H](OC(=O)COc1ccccc1)[C@@]1(C)C(=O)[C@H](O)C3=C(C)[C@@H](OC(=O)[C@H](O)[C@@H](NC(=O)C=C(C)C)c4ccco4)C[C@@](O)([C@@H](OC(=O)c4ccccc4)C12)C3(C)C` (stereo partly drawn) [Compound 5555], the IC50 was under 1 nM.

For `CSCC(=O)O[C@H]1C[C@H]2OC[C@@]2(OC(C)=O)C2[C@H](OC(=O)c3ccccc3)[C@]3(O)C[C@H](OC(=O)[C@H](O)[C@@H](NC(=O)OC(C)(C)C)c4ccco4)C(C)=C([C@@H](O)C(=O)[C@@]21C)C3(C)C` (stereo partly drawn) [Compound 5600], the IC50 was under 1 nM.

Consider `CC(=O)O[C@@]12CO[C@@H]1C[C@H](OC(=O)COc1ccccc1)[C@@]1(C)C(=O)[C@H](O)C3=C(C)[C@@H](OC(=O)[C@H](O)[C@@H](NC(=O)OC(C)(C)C)c4ccco4)C[C@@](O)([C@@H](OC(=O)c4ccccc4)C12)C3(C)C` (stereo partly drawn) [Compound 5616], for which the IC50 was under 1 nM.

`CC(=O)OCC(=O)O[C@H]1C[C@H]2OC[C@@]2(OC(C)=O)C2[C@H](OC(=O)c3ccccc3)[C@]3(O)C[C@H](OC(=O)[C@H](O)[C@@H](NC(=O)OC(C)(C)C)c4ccco4)C(C)=C([C@@H](O)C(=O)[C@@]21C)C3(C)C` (stereo partly drawn) [Compound 5622]: the IC50 is under 1 nM.

`C/C=C/C(=O)N[C@@H](c1ccco1)[C@@H](O)C(=O)O[C@H]1C[C@@]2(O)[C@@H](OC(=O)c3ccccc3)C3[C@](C)(C(=O)[C@H](O)C(=C1C)C2(C)C)[C@@H](OC(=O)COc1ccccc1)C[C@H]1OC[C@@]31OC(C)=O` (stereo partly drawn) [Compound 5811]: the IC50 was under 1 nM.

Consider `C/C=C/C(=O)N[C@@H](c1ccco1)[C@@H](O)C(=O)O[C@H]1C[C@@]2(O)[C@@H](OC(=O)c3ccccc3)C3[C@](C)(C(=O)[C@H](O)C(=C1C)C2(C)C)[C@@H](OC(=O)COC)C[C@H]1OC[C@@]31OC(C)=O` (stereo partly drawn) [Compound 5835], for which the IC50 is under 1 nM.

`CCC(C)(C)OC(=O)NC(c1ccco1)C(O)C(=O)OC1CC2(O)C(OC(=O)c3ccccc3)C3C4(OC(C)=O)COC4CC(OC(=O)COC)C3(C)C(=O)C(O)C(=C1C)C2(C)C` (stereo not drawn) [Compound 6226, N-Debenzoyl-N-tert-amyloxycarbonyl-3′-desphenyl-3′-(2-furyl)-10-deacetyl-7-methoxyacetyl taxol]: the IC50 was under 1 nM.

The same experiment, now with this note: HCT116 colony formation; 72 h drug incubation, colonies counted after 7 days; Example 20, C-10 substituted acetate/C-7 hydroxy taxanes; read-out: IN VITRO ID 50 (nm) HCT116.
Turning to `C/C=C/C(=O)N[C@@H](c1ccco1)[C@@H](O)C(=O)O[C@H]1C[C@@]2(O)[C@@H](OC(=O)c3ccccc3)C3[C@](C)(C(=O)[C@H](OC(=O)COC)C(=C1C)C2(C)C)[C@@H](O)C[C@H]1OC[C@@]31OC(C)=O` (stereo partly drawn) [Compound 6066], the IC50 is under 1 nM.

Regarding `C/C=C/C(=O)N[C@@H](c1ccco1)[C@@H](O)C(=O)O[C@H]1C[C@@]2(O)[C@@H](OC(=O)c3ccccc3)C3[C@](C)(C(=O)[C@H](OC(=O)COc4ccccc4)C(=C1C)C2(C)C)[C@@H](O)C[C@H]1OC[C@@]31OC(C)=O` (stereo partly drawn) [Compound 6111], the IC50 was under 1 nM.
